Laboratory results from ChEMBL document CHEMBL1201862, “PubChem BioAssay data set” (2004).
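The compound was tested at five concentrations on cells cultured in 96-well plates, with a 48-hour exposure period. Abbreviation: GI50, concentration required for 50% inhibition of growth.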 The source made the active and inactive calls. Cut-off read from the data, not from the text of the source: active = GI50 up to about 1.1 µM and inactive = higher.

Key:
Experiment in all cases: growth of human tumour cells (NCI), 48 h
A498 = system: A498
ACHN = system: ACHN
CAKI-1 = system: CAKI-1
HCT-15 = system: HCT-15
IGROV-1 = system: IGROV-1
KM12 = system: KM12
MOLT-4 = system: MOLT-4
OVCAR-3 = system: OVCAR-3
OVCAR-4 = system: OVCAR-4
OVCAR-8 = system: OVCAR-8
RPMI-8226 = system: RPMI-8226
SK-MEL-28 = system: SK-MEL-28
SK-MEL-2 = system: SK-MEL-2
SNB-75 = system: SNB-75
TK-10 = system: TK-10
U-251 = system: U-251
UACC-62 = system: UACC-62
COLO 205 = system: COLO 205

Measured: GI50

c1ccc(OCc2nnc3n2N=C(c2ccccc2)CS3)cc1
inactive: A498 53.5 µM | ACHN > 100 µM | CAKI-1 71 µM | IGROV-1 > 100 µM | KM12 > 100 µM | MOLT-4 71.6 µM | OVCAR-3 > 100 µM | OVCAR-4 > 100 µM | OVCAR-8 > 100 µM | RPMI-8226 > 100 µM | SK-MEL-28 > 100 µM | SK-MEL-2 75.3 µM | SNB-75 33 µM | TK-10 > 100 µM | U-251 > 100 µM | UACC-62 > 100 µM
> 100 µM: HCT-15

Cc1c(C2Cc3ccccc3N2C(=O)/C=C\C(=O)O)c2ccccc2n1C (centres undefined)
> 100 µM: HCT-15
inactive: A498 18 µM | ACHN 38.6 µM | CAKI-1 25.8 µM | COLO 205 17.1 µM | IGROV-1 24.4 µM | KM12 18.4 µM | MOLT-4 27.7 µM | OVCAR-3 17.5 µM | OVCAR-4 30.6 µM | OVCAR-8 18.5 µM | SK-MEL-2 17.7 µM | SNB-75 21.8 µM | TK-10 22 µM | U-251 20.1 µM | UACC-62 16.9 µM

CCOC(=O)c1nc2ccc([N+](=O)[O-])cc2c2c1CCO2
inactive: A498 > 100 µM | ACHN > 100 µM | CAKI-1 > 100 µM | COLO 205 > 100 µM | IGROV-1 > 100 µM | KM12 > 100 µM | MOLT-4 > 100 µM | OVCAR-3 > 100 µM | OVCAR-4 > 100 µM | OVCAR-8 > 100 µM | SK-MEL-28 > 100 µM | SK-MEL-2 > 100 µM | SNB-75 41.3 µM | TK-10 > 100 µM | U-251 > 100 µM | UACC-62 > 100 µM
> 100 µM: HCT-15

O=C(Nc1cc(Cl)ccc1Cl)C(=O)C(c1cnc2ccccc2n1)[N+](=O)[O-] (centres undefined)
> 100 µM: HCT-15
inactive: A498 > 100 µM | ACHN > 100 µM | CAKI-1 > 100 µM | COLO 205 > 100 µM | IGROV-1 > 100 µM | KM12 > 100 µM | MOLT-4 > 100 µM | OVCAR-3 > 100 µM | OVCAR-4 > 100 µM | OVCAR-8 > 100 µM | RPMI-8226 > 100 µM | SK-MEL-28 > 100 µM | SNB-75 > 100 µM | TK-10 > 100 µM | U-251 > 100 µM | UACC-62 > 100 µM

O=C1CCC(=O)C(C(=O)CCC(=O)Nc2ccc(Cl)cc2)C1 (centres undefined)
inactive: A498 > 100 µM | ACHN > 100 µM | CAKI-1 > 100 µM | COLO 205 > 100 µM | IGROV-1 > 100 µM | KM12 > 100 µM | MOLT-4 > 100 µM | OVCAR-3 > 100 µM | OVCAR-4 > 100 µM | OVCAR-8 > 100 µM | RPMI-8226 > 100 µM | SK-MEL-2 > 100 µM | TK-10 > 100 µM | U-251 > 100 µM | UACC-62 > 100 µM
> 100 µM: HCT-15

O=C(O)CCC(NC(=O)c1ccc(Nc2nc3cc(C(F)(F)F)ccc3nc2-c2ccccc2)cc1)C(=O)O (centres undefined)
60.3 µM: HCT-15
inactive: A498 > 100 µM | COLO 205 > 55.7 µM | IGROV-1 > 100 µM | KM12 45.9 µM | MOLT-4 44.6 µM | OVCAR-3 > 100 µM | OVCAR-4 31.3 µM | OVCAR-8 > 100 µM | RPMI-8226 > 63.1 µM | SK-MEL-28 > 100 µM | SK-MEL-2 > 100 µM | SNB-75 > 79.6 µM | U-251 67.1 µM | UACC-62 > 60.1 µM

COc1ccc(Oc2ccccc2N)cc1
9.51 µM: HCT-15
inactive: A498 > 100 µM | ACHN 24.5 µM | COLO 205 16.6 µM | IGROV-1 36.6 µM | KM12 20.9 µM | MOLT-4 18 µM | OVCAR-3 26.4 µM | OVCAR-4 57.3 µM | OVCAR-8 56.2 µM | RPMI-8226 31.8 µM | SK-MEL-28 28.2 µM | SK-MEL-2 57 µM | SNB-75 23.7 µM | U-251 12.4 µM | UACC-62 19.3 µM

c1ccc(C2=NOC3(c4ccccc4)SC4CCCCC4CN23)cc1 (centres undefined)
inactive: A498 35.5 µM | ACHN 26.2 µM | CAKI-1 19.5 µM | COLO 205 27.6 µM | IGROV-1 14.7 µM | KM12 25.5 µM | MOLT-4 12.7 µM | OVCAR-3 39.4 µM | OVCAR-4 45 µM | RPMI-8226 22 µM | SK-MEL-28 89.1 µM | SK-MEL-2 31.3 µM | SNB-75 18.2 µM | TK-10 83.9 µM | U-251 15.2 µM | UACC-62 25 µM
26.7 µM: HCT-15

COc1cc2c(cc1OC)C(C(c1ccccc1)c1ccccc1)N(C)CC2 (centres undefined)
active: CAKI-1 0.617 µM
inactive: A498 > 100 µM | COLO 205 16.1 µM | IGROV-1 70.6 µM | KM12 > 100 µM | MOLT-4 38.3 µM | OVCAR-3 > 84.7 µM | OVCAR-4 > 94 µM | OVCAR-8 > 100 µM | RPMI-8226 36.6 µM | SK-MEL-28 > 79.3 µM | SK-MEL-2 > 85.9 µM | SNB-75 49.1 µM | U-251 61.9 µM | UACC-62 > 86.7 µM
> 100 µM: HCT-15

COc1ccc2c(c1)[n+]([O-])c(-c1ccc(C)cc1)c(N)[n+]2[O-]
45.8 µM: HCT-15
inactive: A498 > 100 µM | ACHN 57.4 µM | CAKI-1 49.2 µM | COLO 205 20.2 µM | IGROV-1 43.3 µM | KM12 44.8 µM | OVCAR-3 31 µM | OVCAR-4 88.7 µM | OVCAR-8 66.2 µM | RPMI-8226 75.5 µM | SK-MEL-28 89.5 µM | SK-MEL-2 40.6 µM | SNB-75 45.1 µM | U-251 54.7 µM

O=C1C=C2SC3C[C@@]24CC1[N+]1=c2c4c(c(O)c4c2=C(C=N4)CC1)N3
3.4 µM: HCT-15
active: OVCAR-3 0.938 µM
inactive: A498 5.31 µM | CAKI-1 2.62 µM | COLO 205 1.91 µM | IGROV-1 2.44 µM | KM12 2.13 µM | MOLT-4 1.53 µM | OVCAR-4 1.66 µM | OVCAR-8 2.03 µM | RPMI-8226 2.08 µM | SK-MEL-28 1.94 µM | SK-MEL-2 1.82 µM | SNB-75 4.61 µM | U-251 1.9 µM | UACC-62 1.78 µM

Oc1cc(O)cc(/C=C/c2ccc(O)c(O)c2)c1 [PICEATANNOL]
5.9 µM: HCT-15
inactive: A498 40.9 µM | CAKI-1 4.35 µM | COLO 205 23.3 µM | IGROV-1 9.64 µM | KM12 3.52 µM | MOLT-4 5.51 µM | OVCAR-3 25.8 µM | OVCAR-4 15.5 µM | OVCAR-8 24.2 µM | RPMI-8226 10.3 µM | SK-MEL-28 49.9 µM | SK-MEL-2 3.87 µM | SNB-75 14.1 µM | U-251 15.4 µM | UACC-62 3.53 µM
